# Patent US12433882B2, “Treatments for amyotrophic lateral sclerosis using dazucorilant” (Corcept Therapeutics Incorporated, priority 2022, dated 2025)
# Assays:
# [1] = biological target: T1, GR (Homo sapiens, UniProt P04150); assay: GR binding (competitive, reversible); details: read-out: affinity for GR
# T1 sequence (P04150 1-777): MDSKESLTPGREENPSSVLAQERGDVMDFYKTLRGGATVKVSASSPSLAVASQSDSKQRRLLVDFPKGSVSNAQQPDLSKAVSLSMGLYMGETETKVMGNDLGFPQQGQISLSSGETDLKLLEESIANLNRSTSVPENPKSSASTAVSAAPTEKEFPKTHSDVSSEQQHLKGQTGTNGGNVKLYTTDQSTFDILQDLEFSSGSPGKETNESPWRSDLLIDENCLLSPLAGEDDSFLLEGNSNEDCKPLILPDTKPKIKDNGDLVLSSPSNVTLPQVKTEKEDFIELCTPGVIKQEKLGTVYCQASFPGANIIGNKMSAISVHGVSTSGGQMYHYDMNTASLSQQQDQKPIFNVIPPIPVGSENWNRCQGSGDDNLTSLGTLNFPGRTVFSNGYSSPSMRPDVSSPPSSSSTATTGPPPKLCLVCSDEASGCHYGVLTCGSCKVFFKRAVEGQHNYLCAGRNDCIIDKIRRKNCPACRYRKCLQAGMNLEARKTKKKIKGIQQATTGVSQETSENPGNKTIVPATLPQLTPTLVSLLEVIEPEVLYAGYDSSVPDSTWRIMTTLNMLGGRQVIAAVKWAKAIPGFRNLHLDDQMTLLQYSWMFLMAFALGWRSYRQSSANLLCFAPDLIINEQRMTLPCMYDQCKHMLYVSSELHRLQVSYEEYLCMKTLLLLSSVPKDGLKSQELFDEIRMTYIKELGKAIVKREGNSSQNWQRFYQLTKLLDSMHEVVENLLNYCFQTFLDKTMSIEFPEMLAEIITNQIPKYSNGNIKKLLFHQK
# Experimental: (§1) Dazucorilant is selective for GR over other nuclear hormone receptors, and a range of other receptors, enzymes, and ion channels. For example, dazucorilant has high selectivity for GR relative to the progesterone receptor (PR), androgen receptor, and estrogen receptor, showing no significant binding to these receptors at a concentration of 10 μM (0%, 1.5% and […], respectively).
# [2] = tested on: GR; assay: Dexamethasone-induced TAT activity in primary hepatocytes from monkeys; type: cell-based
# Experimental: as §1
# [3] = biological target: T2, mineralocorticoid receptor (MR) (Homo sapiens, UniProt P08235); assay: MR reporter gene assay; type: cell-based
# T2 sequence (P08235 1-984): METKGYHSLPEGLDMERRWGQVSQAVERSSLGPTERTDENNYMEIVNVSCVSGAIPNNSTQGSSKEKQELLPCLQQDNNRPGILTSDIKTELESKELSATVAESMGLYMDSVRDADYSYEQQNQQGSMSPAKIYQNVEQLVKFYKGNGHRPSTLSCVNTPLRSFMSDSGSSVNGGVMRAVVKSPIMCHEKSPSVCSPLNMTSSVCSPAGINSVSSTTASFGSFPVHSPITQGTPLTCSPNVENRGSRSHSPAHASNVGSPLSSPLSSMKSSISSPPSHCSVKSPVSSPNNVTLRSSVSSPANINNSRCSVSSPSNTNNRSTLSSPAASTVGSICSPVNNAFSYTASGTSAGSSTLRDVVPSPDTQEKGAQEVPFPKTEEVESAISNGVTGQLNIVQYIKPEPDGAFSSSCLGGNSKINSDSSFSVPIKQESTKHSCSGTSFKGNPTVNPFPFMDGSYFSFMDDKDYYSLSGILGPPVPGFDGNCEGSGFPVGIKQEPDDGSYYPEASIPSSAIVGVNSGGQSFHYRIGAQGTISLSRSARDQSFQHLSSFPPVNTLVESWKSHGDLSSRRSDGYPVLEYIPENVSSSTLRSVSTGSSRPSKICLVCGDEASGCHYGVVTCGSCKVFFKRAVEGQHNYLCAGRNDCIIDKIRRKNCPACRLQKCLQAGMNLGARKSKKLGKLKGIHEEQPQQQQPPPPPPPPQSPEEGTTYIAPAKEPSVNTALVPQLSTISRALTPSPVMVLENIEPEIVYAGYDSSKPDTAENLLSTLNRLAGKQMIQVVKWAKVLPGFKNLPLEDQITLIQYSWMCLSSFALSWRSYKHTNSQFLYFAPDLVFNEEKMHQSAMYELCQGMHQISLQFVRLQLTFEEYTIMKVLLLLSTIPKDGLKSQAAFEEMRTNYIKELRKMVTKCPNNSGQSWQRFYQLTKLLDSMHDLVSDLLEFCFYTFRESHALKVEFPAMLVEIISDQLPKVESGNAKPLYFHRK
# [4] = Quantitative whole-body autoradiography (QWBA) study in rats; type: in vivo
# Experimental: The in vivo distribution of dazucorilant was determined in a quantitative whole-body autoradiography (QWBA) study in rats. Following a single oral administration of ^14C-dazucorilant to male and female rats, radioactivity was steadily absorbed, with maximal tissue concentrations generally occurring at around 12 hours post-dose.
# [5] = tested on: Wobbler mouse; assay: Wobbler mouse model of ALS; type: in vivo; details: administration for 21 days
# [6] = tested on: effect of prednisone on eosinophils, lymphocytes, neutrophils, osteocalcin; assay: First In Human study Part 3, proof of pharmacological effect (prednisone challenge); type: in vivo; details: prednisone+dazucorilant vs. prednisone alone
# Source text: Linear mixed model of PD parameter estimates from part 3 of the FIE study, including terms for treatment fitted as a fixed effect, subject fitted as a random effect, and baseline concentration values fitted as a covariate. AUEC, area under the effect curve; cfb, change from baseline; CI, confidence interval; Emax, maximum change; ns, not significant.
# [7] = First In Human study Part 1, single ascending dose PK with or without food; details: for AUC(0-inf)/D (adjusted geometric mean) / AUC(0-last)/D (adjusted geometric mean) / Cmax/D (adjusted geometric mean): single dose
# Experimental: An adaptive dose, double-blind, placebo-controlled study (NCT04249323, EudraCT 2019-004258-27) was conducted in 110 healthy male and female volunteers (18-60 years old; BMI 18-30 kg/m2; weight≤102 kg; “First In Human” (FIH) study).
# ANOVA model of natural log-transformed PK parameters from part 1 of the FIH study, including a term for treatment fitted as fixed effect. PK parameters normalized to the equivalent of a 1-mg dose. AUC, area under the curve; CI, confidence interval; Cmax, maximum concentration; D, dose.
# ANOVA model of natural log-transformed PK parameters from part 1 of the FIH study, including a term for treatment fitted as fixed effect. CI, confidence interval; Cmax, maximum concentration; AUC, area under the curve.
# [8] = first 24 hours after dosing, single oral dose, rats
# [9] = 2-fold dose escalation, 450 mg to 900 mg fed
# [10] = 3-fold dose escalation, 150 mg to 450 mg fasted
structure (smiles),measurement,setting,value
"O=C(c1ccccn1)[C@]12Cc3cnn(-c4ccc(F)cc4)c3C=C1CCN(S(=O)(=O)c1ccc(C(F)(F)F)cc1)C2 [dazucorilant, (R)-(1-(4-fluorophenyl)-6-((4-(trifluoromethyl)phenyl)sulfonyl)-4,4a, 5,6,7,8-hexahydro-1-H-pyrazolo[3,4-g]isoquinolin-4a-yl) (pyridin-2-yl)methanone]",Ki,[1],0.28 nM
same,dexamethasone-induced increase in TAT activity,[2],prevented the dexamethasone-induced increase in TAT activity
same,inhibition at 5 µM,[3],23%
same,"Tissue:blood ratio, brain",[4]; [8],> 0.1
same,"Tissue:blood ratio, spinal cord",[4]; [8],> 0.1
same,time of maximal tissue concentrations of radioactivity,"[4]; single oral administration, male and female rats, post-dose",around 12 hours
same,forepaw atrophy,[5],reducing forepaw atrophy
same,neurodegeneration and inflammation,[5],inhibiting neurodegeneration and inflammation
same,performance in the rotarod test,[5],overcoming the impaired performance in the rotarod test
same,"effect of dazucorilant on prednisone-induced changes in eosinophils, lymphocytes, osteocalcin, neutrophils",[6],ameliorated the effect of prednisone on these parameters
same,AUC(0-inf)/D (adjusted geometric mean),[7]; 150 mg FASTED,2.18 ng·h/mL/mg
same,AUC(0-last)/D (adjusted geometric mean),[7]; 150 mg FASTED,1.69 ng·h/mL/mg
same,Cmax/D (adjusted geometric mean),[7]; 150 mg FASTED,0.494 ng/mL/mg
same,exposure in fed vs fasted subjects,"[7]; 300 mg with and without food, FIG. 1A/1B",Greater dazucorilant exposure was observed when dazucorilant was administered to fed subjects
same,AUC(0-inf) Ratio Fed:Fasted,[7]; 450 mg,250.7%
same,AUC(0-last) Ratio Fed:Fasted,[7]; 450 mg,250.7%
same,Cmax Ratio Fed:Fasted,[7]; 450 mg,202.3%
same,AUC(0-inf) (adjusted geometric mean),[7]; 450 mg FASTED,1290 ng·h/mL
same,AUC(0-last) (adjusted geometric mean),[7]; 450 mg FASTED,1180 ng·h/mL
same,Cmax (adjusted geometric mean),[7]; 450 mg FASTED,251 ng/mL
same,AUC(0-inf)/D (adjusted geometric mean),[7]; 450 mg FASTED,2.86 ng·h/mL/mg
same,AUC(0-last)/D (adjusted geometric mean),[7]; 450 mg FASTED,2.62 ng·h/mL/mg
same,Cmax/D (adjusted geometric mean),[7]; 450 mg FASTED,0.557 ng/mL/mg
same,AUC(0-inf) (adjusted geometric mean),[7]; 450 mg FED,3220 ng·h/mL
same,AUC(0-last) (adjusted geometric mean),[7]; 450 mg FED,2950 ng·h/mL
same,Cmax (adjusted geometric mean),[7]; 450 mg FED,508 ng/mL
same,AUC(0-inf)/D (adjusted geometric mean),[7]; 450 mg FED,7.17 ng·h/mL/mg
same,AUC(0-last)/D (adjusted geometric mean),[7]; 450 mg FED,6.56 ng·h/mL/mg
same,Cmax/D (adjusted geometric mean),[7]; 450 mg FED,1.13 ng/mL/mg
same,AUC(0-inf)/D Ratio High:Low Dose,[7]; 450 mg vs 150 mg FASTED,131.3%
same,AUC(0-last)/D Ratio High:Low Dose,[7]; 450 mg vs 150 mg FASTED,155.2%
same,Cmax/D Ratio High:Low Dose,[7]; 450 mg vs 150 mg FASTED,112.9%
same,AUC(0-inf)/D (adjusted geometric mean),[7]; 900 mg FED,10.2 ng·h/mL/mg
same,AUC(0-last)/D (adjusted geometric mean),[7]; 900 mg FED,8.33 ng·h/mL/mg
same,Cmax/D (adjusted geometric mean),[7]; 900 mg FED,1.23 ng/mL/mg
same,AUC(0-inf)/D Ratio High:Low Dose,[7]; 900 mg vs 450 mg FED,42.3%
same,AUC(0-last)/D Ratio High:Low Dose,[7]; 900 mg vs 450 mg FED,127.0%
same,Cmax/D Ratio High:Low Dose,[7]; 900 mg vs 450 mg FED,109.2%
same,increase in AUC(0-inf) on dose escalation,[7]; [9],2.8 fold
same,increase in Cmax on dose escalation,[7]; [9],2.2 fold
same,increase in AUC(0-inf) on dose escalation,[7]; [10],4.0 fold
same,increase in Cmax on dose escalation,[7]; [10],3.4 fold
same,"food effect, increase in exposure","[7]; high-fat breakfast vs fasting (Table 2, 450 mg)",> 2 fold
